Assay [1] has as its system strain 8/21 of C. parapsilosis. The assay is described as follows: Etest method (MIC). The assay is classed as cell-based, Candida parapsilosis. The conditions noted are these: RPMI medium plates, 24 h at 35° C.; for MIC: Lodderomyces parapsilosis. The procedure:
(§1) The Etest® method is a commercial test for determining the sensitivity of a strain, most frequently used routinely in clinical mycology laboratories.
(§2) The Etest® tests were performed according to the manufacturer's instructions. After distributing a standardised Mac Farland 0.5 inoculum (equivalent of […]) over plates of RPMI medium, said plates were incubated for 24 h at 35° C., with the exception of C. glabrata in which case the incubation was extended to 48 h so as to be able to determine the minimum inhibitory concentration (MIC).
(§3) The results of the MICs obtained were interpreted in accordance with the tables of the CLSI (Clinical and Laboratory Standards Institute) and/or of EUCAST (European Committee on Antimicrobial Susceptibility Testing) (Arendrup M C, Cuenca-Estrella M, Lass-Flörl C, Hope W W (2014) Breakpoints for antifungal agents: an update from EUCAST focussing on echinocandins against Candida spp and triazoles against Aspergillus spp. Drug Resist Updat 16(6):81-95. doi:10.1016/j.drup.2014.01.001) (cf. Table 2 taken from Maubon D, Garnaud C, Calandra T, et al. (2014) Resistance of Candida spp. to antifungal drugs in the ICU: where are we now? Intensive Care Med. doi: 10.1007/s00134-014-3404-7) which list the clinical thresholds (CBPs) for the most common species of yeast of the genus Candida as a function of different antifungal agents, or according to the table of epidemiological thresholds (ECVs).

Assay [2] concerns strain GRE32 of C. krusei. The assay is described as follows: Etest method (MIC). The conditions noted are these: RPMI medium plates, 24 h at 35° C.; for MIC: Pichia kudriavzevii; for phenotype by Etest MIC, interpretation by the EUCAST or CLSI table: fluconazole interpreted by extrapolation of the EUCAST and CLSI data for C. glabrata. The assay is classed as cell-based, Candida krusei. The procedure: as §1, §2, §3

In assay [3] the test system is strain ATCC®6258 of C. krusei. The assay is described as follows: Etest method (MIC). To be noted: RPMI medium plates, 24 h at 35° C.; for MIC: Pichia kudriavzevii, ATCC6258; for phenotype by Etest MIC, interpretation by the EUCAST or CLSI table: fluconazole interpreted by extrapolation of the EUCAST and CLSI data for C. glabrata. The assay is classed as cell-based, Candida krusei. The procedure:
as §1, §2, §3

Assay [4] deals with strain TOP of C. albicans. The assay is described as follows: Sensitivity test by HCA microscopy (chitin level, Calcofluor White). The assay is classed as cell-based, Candida albicans. To be noted: 6.5 h at 30° C., SC medium. The method, then:
The strains of Candida were incubated beforehand at 30° C. overnight in a yeast extract medium—peptone dextrose (YPD) (1% bacto peptone, 0.5% yeast extract, 2% glucose, 1.5% agar).
Yeast colonies were then removed from YPD medium plates and suspended in a 0.9% NaCl saline solution, in which the cell concentration was estimated by optical microscopy using Kova counting slides. […]
A step of acquiring images by automated fluorescence microscopy (ScanR screening station, Olympus), using a 40× lens and a CFW filter, made it possible to obtain 30 images per well so as to capture enough cells to provide statistically significant data. These images were analysed by software (ScanR analysis software, Olympus). Firstly, the background noise was processed so as to improve the contrast between the fluorescence of the yeasts and background noise. […] Segmentation of the fluorescent elements present in each of the acquired images was then performed using an algorithm predefined in the software, making it possible to determine the limit of each element on the basis of the fluorescence intensity of said element. […]
Each element then corresponding to a yeast, it was thus possible, on the basis of these elements predefined beforehand, to define the fluorescence intensity for each of the yeasts, this intensity being directly correlated with the chitin content of their wall. […]

Assay [5] concerns strain TOP of C. albicans. The assay is described as follows: Etest method (MIC). The assay is classed as cell-based, Candida albicans. To be noted: RPMI medium plates, 24 h at 35° C. The procedure: as §1, §2, §3
The test system of assay [6] is strain 13/5 of C. tropicalis. As to the kind of experiment: Etest method (MIC). The conditions noted are these: RPMI medium plates, 24 h at 35° C. The assay is classed as cell-based, Candida tropicalis. The method, then:
as §1, §2, §3

Broadly, the MIC is the lowest concentration that inhibits growth of the organism. Low values mean inhibition by little substance, high ones a need for much substance.

Each structure is given as a SMILES string. Values after ≈ are worked out from the molar mass of the structure shown. Starred links: 1 amine or outer side, 2 acyl side, 3 side chain; linkers in the order of their positions; H or OH if unused. Positions of bridges follow the written chain, without caps; N, C: chain ends. Non-standard residues stand in square brackets, D forms with d. Residues, ends and D or L forms follow the SMILES beside them. *: point of attachment. hTyr(3S-OH,4S-OH,3'-OSO3H) = N[C@H](C(=O)O)[C@H](O)[C@@H](O)c1ccc(O)c(OS(=O)(=O)O)c1; Orn(4R-OH,5R-OH) = O=C([C@H](C[C@@H](O)[C@@H](O)N[*:3])N[*:1])[*:2]; Pro(3S-OH,4S-Me) = C[C@H]1CN[C@H](C(=O)O)[C@H]1O; X1 = CCCCCOc1ccc(-c2cc(-c3ccc(C(=O)*)cc3)no2)cc1; Gln(3R-OH) = NC(=O)C[C@@H](O)[C@H](N)C(=O)O; Hyp = O=C(O)[C@@H]1C[C@@H](O)CN1

With `OC(Cn1cncn1)(Cn1cncn1)c1ccc(F)cc1F` [fluconazole], in assay [1], the minimum inhibitory concentration (MIC) stood at 8 µg/mL (≈ 26.1 µM); the “phenotype by Etest MIC, interpretation by the EUCAST and CLSI tables” value (“phenotype … by the EUCAST and CLSI tables” below) was “resistant”. Further, in assay [2], the minimal inhibitory concentration (MIC) turned out to be 64 µg/mL (≈ 209 µM) and the “phenotype by Etest MIC, interpretation by the EUCAST or CLSI table” value (shortened to “phenotype … by the EUCAST or CLSI table”) is on record as “resistant”. In assay [3], the MIC is 64 µg/mL (≈ 209 µM) and the “phenotype … by the EUCAST or CLSI table” value is given as “resistant”.

Regarding `CCCCCOc1ccc(-c2cc(-c3ccc(C(=O)N[C@H]4C[C@@H](O)[C@@H](O)NC(=O)[C@@H]5[C@@H](O)[C@@H](C)CN5C(=O)[C@H]([C@H](O)CC(N)=O)NC(=O)[C@H]([C@H](O)[C@@H](O)c5ccc(O)c(OS(=O)(=O)O)c5)NC(=O)[C@@H]5C[C@@H](O)CN5C(=O)[C@H]([C@@H](C)O)NC4=O)cc3)no2)cc1` [micafungin] (X1-[Orn(4R-OH,5R-OH)]T[Hyp][hTyr(3S-OH,4S-OH,3'-OSO3H)][Gln(3R-OH)][Pro(3S-OH,4S-Me)]; lactam 1-C), in assay [4], the “phenotype of the strain with respect to the antifungal agent (HCA)” value is recorded as “resistant (an increase in the chitin level having a value less than 10% or a decrease in the chitin level of less than 20% or an unchanged chitin level)”. The “increase in the chitin level in the wall of the cells” value in assay [4] (vs cells in the absence of antifungal agent, concentration gradient up to 1 μg/ml) is “less than 10%”. The MIC in assay [5] (Candida albicans) is 1 µg/mL (≈ 0.787 µM); in assay [6] (Candida tropicalis) it was 1.5 µg/mL (≈ 1.18 µM). Moreover, in assay [5], the “phenotype … by the EUCAST and CLSI tables” value is “resistant”. In assay [6], the “phenotype by Etest MIC, interpretation by the CLSI table” value was “resistant”.

Regarding `C[C@@H](c1ncncc1F)[C@](O)(Cn1cncn1)c1ccc(F)cc1F` [voriconazole], the results for the minimal inhibitory concentration (MIC) in assay [1], in assay [2] and in assay [3] were 4 µg/mL (≈ 11.5 µM), 1 µg/mL (≈ 2.86 µM) and 1 µg/mL (≈ 2.86 µM), respectively. In assay [1], the “phenotype … by the EUCAST and CLSI tables” value is given as “resistant”. Also, the “phenotype … by the EUCAST or CLSI table” value in assay [2] and in assay [3] was “intermediate” each time.

The values above are taken from patent US11415513B2, “Method for determining the degree of sensitivity of a strain of fungus to an antifungal agent” (UNIVERSITE GRENOBLE ALPES, priority 2015, dated 2022).
